Test results taken from PubChem BioAssay AID2060892 (Molecular Pharmacology Branch, DTP, NCI, 2025).

Tested on: HOP-62 complex spheroids with HUVEC/MSC, viability
Test: Anticancer human tumor HOP-62 cell line growth inhibition [RAS];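 note: spheroids exposed to agents for seven days before readout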;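 for viability, T/C: 100% = DMSO vehicle control viability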
Details: for IC50: curve of first compound; for viability, T/C: stronger effect = lower value
Method in brief: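 Multi-cell-type spheroids: tumor cells plus HUVEC endothelial cells and mesenchymal stem cells. RAS-pathway inhibitors were combined with targeted agents, each dosed in half-log steps down from clinical Cmax, or from 10 microM when Cmax was unknown.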

O=C(c1ccc(F)c(F)c1Nc1ccc(I)cc1F)N1CC(O)([C@@H]2CCCCN2)C1 + C#Cc1c(F)ccc2cc(O)cc(-c3ncc4c(N5CC6CCC(C5)N6)nc(OCC56CCCN5CC(F)C6)nc4c3F)c12
IC50 (second compound 0.0316 µM): 122 nM
IC50 (second compound 0.1 µM): 149 nM
IC50 (second compound 0.316 µM): 141 nM
IC50 (second compound 1 µM): 106 nM
IC50 (second compound 3.16 µM): 42.1 nM
IC50 (second compound 10 µM): < 3.16 nM
viability, T/C (second compound 0.0316 µM, first compound 0.00316 µM): 107%
viability, T/C (second compound 0.0316 µM, first compound 0.01 µM): 113%
viability, T/C (second compound 0.0316 µM, first compound 0.0316 µM): 97.3%
viability, T/C (second compound 0.0316 µM, first compound 0.1 µM): 54.2%
viability, T/C (second compound 0.0316 µM, first compound 0.316 µM): 30.8%
viability, T/C (second compound 0.0316 µM, first compound 1 µM): 25.2%
viability, T/C (second compound 0.1 µM, first compound 0.00316 µM): 112%
viability, T/C (second compound 0.1 µM, first compound 0.01 µM): 114%
viability, T/C (second compound 0.1 µM, first compound 0.0316 µM): 90.2%
viability, T/C (second compound 0.1 µM, first compound 0.1 µM): 61%
viability, T/C (second compound 0.1 µM, first compound 0.316 µM): 31.3%
viability, T/C (second compound 0.1 µM, first compound 1 µM): 24%
viability, T/C (second compound 0.316 µM, first compound 0.00316 µM): 113%
viability, T/C (second compound 0.316 µM, first compound 0.01 µM): 108%
viability, T/C (second compound 0.316 µM, first compound 0.0316 µM): 88.3%
viability, T/C (second compound 0.316 µM, first compound 0.1 µM): 58.1%
viability, T/C (second compound 0.316 µM, first compound 0.316 µM): 32.2%
viability, T/C (second compound 0.316 µM, first compound 1 µM): 26.8%
viability, T/C (second compound 1 µM, first compound 0.00316 µM): 96.7%
viability, T/C (second compound 1 µM, first compound 0.01 µM): 95.7%
viability, T/C (second compound 1 µM, first compound 0.0316 µM): 82%
viability, T/C (second compound 1 µM, first compound 0.1 µM): 50.1%
viability, T/C (second compound 1 µM, first compound 0.316 µM): 33.2%
viability, T/C (second compound 1 µM, first compound 1 µM): 25.3%
viability, T/C (second compound 3.16 µM, first compound 0.00316 µM): 73.6%
viability, T/C (second compound 3.16 µM, first compound 0.01 µM): 63.6%
viability, T/C (second compound 3.16 µM, first compound 0.0316 µM): 56.3%
viability, T/C (second compound 3.16 µM, first compound 0.1 µM): 36.5%
viability, T/C (second compound 3.16 µM, first compound 0.316 µM): 22.3%
viability, T/C (second compound 3.16 µM, first compound 1 µM): 18.3%
viability, T/C (second compound 10 µM, first compound 0.00316 µM): 46.4%
viability, T/C (second compound 10 µM, first compound 0.01 µM): 47.9%
viability, T/C (second compound 10 µM, first compound 0.0316 µM): 32.2%
viability, T/C (second compound 10 µM, first compound 0.1 µM): 23.9%
viability, T/C (second compound 10 µM, first compound 0.316 µM): 12.5%
viability, T/C (second compound 10 µM, first compound 1 µM): 11.7%
